Among the test systems are NCI-H522 lung; RXF 393 renal; SK-OV-3 ovarian; HOP-92 NSCLC; HS 578T breast; A549 NSCLC.
Common to all, as to assay: NCI anticancer screen, dose series, 48 h

These results are taken from PubChem BioAssay (NCI).

Molecules are shown by their SMILES. Values after ≈ are worked out from the molar mass of the structure shown. Values joined by “and” are separate entries in the source; they are usually repeats but may differ in a detail not shown here. Equal values may be shown once.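 Cultured in 96-well plates, cells were exposed to test compound for 48 hours across five concentrations. The concentration for 50% growth inhibition is given as GI50. At the TGI there is no net growth.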

For `O=C(c1ccc(Cl)cc1)N(C(=S)OCCOc1ccccc1)c1ccccc1`, the TGI in the assay with NCI-H522 lung was 43.7 µM; in the assay on RXF 393 renal it was 39.3 µM; with SK-OV-3 ovarian, over 100 µM; with HOP-92 NSCLC, 30.7 µM; with HS 578T breast, over 100 µM; in the assay on A549 NSCLC, 39.3 µM.
On to `CCOP(=O)(OCC)OC1c2[nH]cc(C(=O)OCc3ccccc3)c2-c2cc(C(=O)OC)[nH]c2C1OC` (stereo not given), for which the TGI is 29.1 µM in the assay on NCI-H522 lung; over 56.3 µM with RXF 393 renal; 58 µM with SK-OV-3 ovarian; 26.3 µM in the assay with HOP-92 NSCLC; over 100 µM with HS 578T breast; over 61.2 µM with A549 NSCLC.
Turning to `CC(C)Oc1c(-c2ccc(F)cc2)c(O)c2c3c1oc(=O)n3C=CC2C` (stereo not given), the TGI with NCI-H522 lung was 27.2 µM; with RXF 393 renal, 27.3 µM; in the assay on SK-OV-3 ovarian, over 100 µM; in the assay with HOP-92 NSCLC, 28 µM; with HS 578T breast, 52.8 µM; in the assay on A549 NSCLC, 28 µM.
On to `Cc1cc(S(=O)(=O)/N=C(\[N-]S(=O)(=O)c2cc(Cl)sc2Cl)[n+]2ccc(N(C)C)cc2)c(S)cc1Cl`, for which the TGI is 86.1 µM in the assay on NCI-H522 lung, over 100 µM in the assay on RXF 393 renal, over 100 µM in the assay on SK-OV-3 ovarian and over 100 µM in the assay on HS 578T breast.
On to `Cc1ccc(N/C(SCc2ccccc2)=C(\C(Cl)=C(Cl)Cl)[N+](=O)[O-])c(C)c1`, for which the results for the TGI with SK-OV-3 ovarian, with HS 578T breast and with A549 NSCLC were over 100 µM, 68.4 µM and 90.6 µM, respectively.
In the case of `CCCCCCCCCCCCCCCCCCOCC(O)COP(=O)(O)OCC1OC(n2ccc(N)nc2=O)C(O)C1O` (stereo not given), the TGI in the assay on NCI-H522 lung was 41.8 µM; in the assay with RXF 393 renal, 33.3 µM; with SK-OV-3 ovarian, over 100 µM; in the assay on HOP-92 NSCLC, 71.8 µM; in the assay on HS 578T breast, over 100 µM; in the assay on A549 NSCLC it was over 100 µM.
Turning to `O=C(OCCNC(=O)N1CC1)OCCNC(=O)N1CC1`, the TGI in the assay with NCI-H522 lung, in the assay with RXF 393 renal, in the assay with SK-OV-3 ovarian, with HOP-92 NSCLC, with HS 578T breast and in the assay on A549 NSCLC was over 10 µM each time.
On to `CC1=C(C(=O)N[C@@H](CC(C)C)C(=O)O)N2C(=O)[C@@H](NC(=O)C(N)c3ccccc3)[C@H]2SC1` (stereo not given in full), for which the TGI with NCI-H522 lung, with RXF 393 renal, with HOP-92 NSCLC, in the assay on HS 578T breast and in the assay with A549 NSCLC was over 100 µM in each case.
Turning to `CNC1(C(=O)O)CC1`, the TGI in the assay on NCI-H522 lung, in the assay with RXF 393 renal, in the assay with HOP-92 NSCLC, in the assay with HS 578T breast and in the assay with A549 NSCLC was over 100 µM each time.
With `COc1ccc(-c2oc3c(OC)c(OC)cc(O)c3c(=O)c2OC)cc1`, the TGI in the assay on NCI-H522 lung, with RXF 393 renal, in the assay with SK-OV-3 ovarian, in the assay with HOP-92 NSCLC, with HS 578T breast and in the assay with A549 NSCLC was over 100 µM each time.
In the case of `COC(=O)CC1c2ccccc2N2C(=O)Cc3c([nH]c4ccccc34)C12` (stereo not given), the TGI in the assay with NCI-H522 lung is over 100 µM; in the assay with RXF 393 renal, over 100 µM; in the assay with SK-OV-3 ovarian, over 100 µM; with HOP-92 NSCLC, over 100 µM; with HS 578T breast, 96.2 µM; in the assay on A549 NSCLC it was over 100 µM.
With `CC(=O)CC1=C(OC(C)C)C2(OCCO2)C1O` (stereo not given), the TGI in the assay with NCI-H522 lung, with RXF 393 renal, in the assay with SK-OV-3 ovarian, with HOP-92 NSCLC, with HS 578T breast and in the assay on A549 NSCLC was over 100 µM each time.
For `COc1ccccc1C1c2cc3c(cc2OC(N2CCOCC2)C1C)OCO3` (stereo not given), the TGI with NCI-H522 lung is 30.1 µM; in the assay on HS 578T breast it was 39 µM; in the assay with A549 NSCLC, 47.3 µM.
Regarding `CCO/C=N/C1=C(C#N)SC2=N/C(=C\c3ccccc3)C(=O)N21`, the TGI with NCI-H522 lung, in the assay on RXF 393 renal, in the assay on SK-OV-3 ovarian, in the assay on HOP-92 NSCLC, in the assay with HS 578T breast and with A549 NSCLC was over 100 µM throughout.
With `COc1cc2c(c(OC)c1OC)-c1ccc(SC)cc1C(O)CC2` (stereo not given), the TGI in the assay with NCI-H522 lung is 235 nM and 33.7 µg/mL; in the assay on HOP-92 NSCLC, over 100 µM; in the assay with A549 NSCLC, 34.6 µM. Further, the GI50 in the assay with RXF 393 renal is 16.2 µg/mL (≈ 46.7 µM).
In the case of `BrCC[N+]12CC[N+](CCBr)(CC1)C2`, the TGI in the assay with NCI-H522 lung, in the assay with RXF 393 renal, with SK-OV-3 ovarian, in the assay on HOP-92 NSCLC, in the assay with HS 578T breast and with A549 NSCLC was over 100 µM each time.
Consider `N#Cc1c(-c2ccccc2)c(CN2CCCCC2)c(=O)n2c1[nH]c1ccccc12`, for which the TGI is 61.7 µM in the assay on NCI-H522 lung, over 100 µM with RXF 393 renal, over 100 µM in the assay on SK-OV-3 ovarian and over 100 µM with A549 NSCLC.
Consider `Cc1cccc(N/C(Sc2ccccc2)=C(/C(Cl)=C(Cl)Cl)[N+](=O)[O-])c1`, for which the TGI worked out at 47.6 µM in the assay with SK-OV-3 ovarian and 47.4 µM in the assay on A549 NSCLC.
Regarding `Cn1cc(-c2csc(-c3cn(C)c4ccccc34)n2)c2ccccc21`, the TGI in the assay with NCI-H522 lung is over 100 µM; in the assay on RXF 393 renal, 54.4 µM; with HOP-92 NSCLC it was 94.5 µM; with HS 578T breast it was over 100 µM; in the assay with A549 NSCLC, over 100 µM.
For the compound `Cc1[nH]c(=O)nc(NNCc2ccc(Cl)cc2)c1C(=O)Nc1ccc(Cl)cc1`, the TGI in the assay with RXF 393 renal, in the assay with SK-OV-3 ovarian, with HOP-92 NSCLC, with HS 578T breast and with A549 NSCLC was over 100 µM throughout.
As to `CSc1nc2c(c(=O)[nH]1)N=C(c1ccccc1)CC(c1ccccc1)N2` (stereo not given), the TGI was 43.9 µM in the assay on NCI-H522 lung; 79.6 µM in the assay with RXF 393 renal; 89.7 µM with SK-OV-3 ovarian; over 100 µM in the assay on HOP-92 NSCLC; over 100 µM with A549 NSCLC.
With `Cc1cnc2sn(-c3ccc(Br)cc3)c(=O)c2c1`, the TGI with NCI-H522 lung is 16.9 µM; with SK-OV-3 ovarian, over 100 µM; in the assay with HOP-92 NSCLC, 68.8 µM; in the assay with HS 578T breast it was 88.1 µM; in the assay on A549 NSCLC it was over 100 µM.
